Patent US8912227B1, “Bicyclic pyrrole derivatives useful as agonists of GPR120” (Janssen Pharmaceutica NV, priority 2014, dated 2014)

What was measured:
Human GPR120 short form = target: T1, Human GPR120 short form (Homo sapiens, UniProt Q5NUL3); assay: Human GPR120 calcium flux assay, Procedure Calcium B; assay type: cell-based; settings: HEK-293 cells expressing human GPR120 short form, 4200 cells/well, FLIPR
T1 construct: expressed in transfected cells
T1 sequence (Q5NUL3 1-361): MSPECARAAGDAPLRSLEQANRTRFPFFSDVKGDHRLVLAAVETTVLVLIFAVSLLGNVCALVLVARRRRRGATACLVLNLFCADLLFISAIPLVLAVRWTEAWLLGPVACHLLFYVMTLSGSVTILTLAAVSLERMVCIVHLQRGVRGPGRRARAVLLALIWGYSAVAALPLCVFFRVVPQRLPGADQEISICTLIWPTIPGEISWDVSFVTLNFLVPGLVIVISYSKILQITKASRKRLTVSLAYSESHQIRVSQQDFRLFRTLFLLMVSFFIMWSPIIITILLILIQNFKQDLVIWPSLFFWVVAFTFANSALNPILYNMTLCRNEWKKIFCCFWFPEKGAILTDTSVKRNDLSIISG

[1] = target: T2, short form of the GPR120 receptor (Homo sapiens, UniProt Q5NUL3); assay: Human GPR120 DiscoveRx PathHunter β-Arrestin assay, Procedure β-arrestin B; assay type: cell-based; settings: PathHunter CHO-K1 GPR120S β-Arrestin cell line, 5000 cells/well
T2 construct: host or cells: PathHunter CHO-K1 GPR120S β-Arrestin Cell Line
Excerpt: The binding of an agonist (medium/long chain fatty acids or small molecule agonists) to the G-protein-coupled receptor GPR120 activates phospholipase C, leading to release of intracellular Ca^+2 through the generation of inositol 1,4,5-trisphosphate (InsP3 or IP3). GPR120 activation can also trigger intracellular signaling via recruitment of β-Arrestin. In the present method, agonist-induced activation of the human GPR120 receptor is monitored through the use of PathHunter CHO-K1 GPR120 β-Arrestin Cell Line engineered by DiscoveRx, as detailed below. The cell lines are designed to co-express both the ProLink/Enzyme Donor (PK)-tagged GPCR and the Enzyme […] (EA)-tagged Beta-Arrestin fusion proteins. Upon GPR120 receptor stimulation/activation, the EA-tagged β-Arrestin portion is translocated to the tagged receptor, where the two enzyme fragments are brought within close proximity. Under these conditions, these fragments can interact and form an active Beta-gal enzyme complex through Enzyme Fragment Complementation (EFC). This active Beta-gal complex can enzymatically hydrolyse the substrate to produce a detectable light signal; therefore, activation as a function of agonist concentration can be expressed as an EC50 value to determine relative compound activities. This in vitro assay therefore serves to assess compound agonist activity of the GPR120.
In Procedure β-arrestin B the cells used were PathHunter CHO-K1 GPR120S β-Arrestin Cell Line, expressing the short form of the GPR120 receptor (Accession #NM_181745), with 5000 cells/well.
The selected CHO-K1 GPR120 β-Arrestin cells were cultured in Ham's F12 media supplemented with 10% fetal bovine serum (FBS), 1% Glutamine, 1×p/s, 800 μg/ml G418 and 300 μg/ml Hygromycin B (for selection). Cell stocks were maintained and grown in a sub-confluent state using standard cell culture procedures. The day before the experiment, the cells were harvested with non-enzymatic cell dissociation buffer and re-suspended in complete growth media at the desired concentration. A Corning 384-plate was then seeded with the proper number of cells in a volume of 25 μL, per well. The seeded plates were incubated overnight at 37° C.
On the day of the experiment, the Assay Buffer containing (a) HBSS with Ca^++ and Mg^++, (b) 20 mM HEPES, and (c) 0.1% BSA stabilizer (pH 7.4) was prepared. The growth medium was gently removed from the cell plates and 20 μL of Assay Buffer added to each well. The plate was then incubated at 37° C. for 60 mins. Test compounds were serially diluted in Assay Buffer to desired concentrations (more particularly, to one or more of the following μM concentrations: 25 μM, 12.5 μM, 6.25 μM, 3.125 μM, 1.562 μM, 0.781 μM, 0.391 μM, 0.195 μM, 0.098 μM, 0.049 μM, 0.024 μM, 0.012 μM). Five μl of compound dilution was then added to each well and the plate incubated at 37° C. for 90 mins. The detection reagents were prepared according to the manufacture's instruction. Twelve μL of the detection reagents were added to each well and the plate incubated at room temperature for 60 mins.
The plates were read on an EnVision instrument, using Protocol name: Luminescence, Plate type: 384 Costar, Measurement height: 3 mm, Measurement time: 1 s, Aperture: 384 Plate aperture. The % activity relative to the positive control was calculated using the following equation:
The % Activity values were plotted versus the concentration of test compound and fitted to a sigmoidal dose-response curve with a Hill slope=1 (fixed value) using nonlinear regression with GraphPad Prism 5.0 to calculate the EC50 values. The Fitting Equation was: Y=Bottom+(Top−Bottom)/(1+10^((LogEC50−X)*HillSlope)), where X is the log of the concentration and Y is the response.

T2 sequence (P32121 whole entry partner, one chain of several): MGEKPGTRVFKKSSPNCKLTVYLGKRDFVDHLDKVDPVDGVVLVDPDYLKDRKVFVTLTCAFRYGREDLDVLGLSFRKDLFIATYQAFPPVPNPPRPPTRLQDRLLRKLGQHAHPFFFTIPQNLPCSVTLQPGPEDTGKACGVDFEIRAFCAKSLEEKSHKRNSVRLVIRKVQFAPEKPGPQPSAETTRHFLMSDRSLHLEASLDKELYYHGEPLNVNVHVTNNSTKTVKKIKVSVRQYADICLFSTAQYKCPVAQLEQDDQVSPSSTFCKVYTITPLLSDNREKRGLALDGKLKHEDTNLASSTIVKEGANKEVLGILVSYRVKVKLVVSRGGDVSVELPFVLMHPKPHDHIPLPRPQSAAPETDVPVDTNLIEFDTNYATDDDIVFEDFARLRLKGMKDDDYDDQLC

For `Cc1ccc(-n2ccc(C(F)(F)F)c2COc2c(F)cc(CCC(=O)O)cc2F)cc1F` [Compound 62, 3-(3,5-difluoro-4-[[1-(3-fluoro-4-methylphenyl)-3-(trifluoromethyl)-1H-pyrrol-2-yl]methoxy]phenyl)propanoic acid], which EC50 (Human GPR120 short form) is on record?
The EC50 was 262 nM.

What about the EC50 [1] of the same compound?
Its EC50 is 96 nM.

With `Cc1ccc(-n2ccc(C(F)(F)F)c2COc2c(F)cc(CC(C)C(=O)O)cc2F)cc1F` (centres unmarked) [Compound 64, 3-(3,5-difluoro-4-[[1-(3-fluoro-4-methylphenyl)-3-(trifluoromethyl)-1H-pyrrol-2-yl]methoxy]phenyl)-2-methylpropanoic acid] as the compound, how does the EC50 (Human GPR120 short form) read?
Its EC50 is 212 nM.

What about the EC50 [1] of the same compound?
Its EC50 is 264 nM.

For `CC(Cc1cc(F)c(OCc2c(C(F)(F)F)ccn2-c2ccc(F)cc2)c(F)c1)C(=O)O` (centres unmarked) [Compound 65, 3-(3,5-difluoro-4-[[1-(4-fluorophenyl)-3-(trifluoromethyl)-1H-pyrrol-2-yl]methoxy]phenyl)-2-methylpropanoic acid], which EC50 (Human GPR120 short form) is on record?
Its EC50 is 547 nM.

And the EC50 [1]?
Its EC50 is 809 nM.

With `Cc1ccc(-n2ccc(C(F)(F)F)c2COc2ccc(CCC(=O)O)c(C)c2C)cc1F` [Compound 66, 3-(4-{[1-(3-Fluoro-4-methylphenyl)-3-(trifluoromethyl)-1H-pyrrol-2-yl]methoxy}-2,3-dimethylphenyl)propanoic acid] as the compound, how does the EC50 (Human GPR120 short form) read?
The EC50 was 315 nM.

And the EC50 [1]?
Its EC50 is 412 nM.

For `O=C(O)CCc1cc(F)c(OCc2c(C(F)(F)F)ccn2-c2ccc(Cl)c(F)c2)c(F)c1` [Compound 67, 3-(4-[[1-(4-chloro-3-fluorophenyl)-3-(trifluoromethyl)-1H-pyrrol-2-yl]methoxy]-3,5-difluorophenyl)propanoic acid], which EC50 (Human GPR120 short form) is on record?
Its EC50 is 368 nM.

And the EC50 [1]?
The EC50 was 206 nM.

For `Cc1c(CCC(=O)O)ccc(OCc2c(C(F)(F)F)ccn2-c2ccc(Cl)c(F)c2)c1C` [Compound 68, 3-(4-{[1-(4-Chloro-3-fluorophenyl)-3-(trifluoromethyl)-1H-pyrrol-2-yl]methoxy}-2,3-dimethylphenyl)propanoic acid], which EC50 (Human GPR120 short form) is on record?
The EC50 was 357 nM.

And the EC50 [1]?
The EC50 was 311 nM.

Which EC50 (Human GPR120 short form) does the source give for `CC(Cc1cc(F)c(OCc2c(C(F)(F)F)ccn2-c2ccc(Cl)c(F)c2)c(F)c1)C(=O)O` (centres unmarked) [Compound 69, 3-(4-[[1-(4-chloro-3-fluorophenyl)-3-(trifluoromethyl)-1H-pyrrol-2-yl]methoxy]-3,5-difluorophenyl)-2-methylpropanoic acid] here?
The EC50 was 488 nM.

And the EC50 [1]?
The EC50 was 630 nM.

How did the EC50 (Human GPR120 short form) turn out when `O=C(O)CCc1cc(F)c(OCc2c(C(F)(F)F)ccn2-c2ccc(Cl)cc2)c(F)c1` [Compound 70, 3-(4-((1-(4-chlorophenyl)-3-(trifluoromethyl)-1H-pyrrol-2-yl)methoxy)-3,5-difluorophenyl)propanoic acid] was run?
The EC50 was 80 nM.

And the EC50 [1]?
Its EC50 is 69 nM.

How did the EC50 (Human GPR120 short form) turn out when `O=C(O)CCc1cc(F)c(OCc2c(C(F)(F)F)ccn2-c2ccc(Cl)cc2F)c(F)c1` [Compound 71, 3-(4-{[1-(4-Chloro-2-fluorophenyl)-3-(trifluoromethyl)-1H-pyrrol-2-yl]methoxy}-3,5-difluorophenyl)propanoic acid] was run?
The EC50 was 179 nM.

What about the EC50 [1] of the same compound?
The EC50 was 624 nM.

How did the EC50 (Human GPR120 short form) turn out when `Cc1ccc(-n2ccc(C(F)(F)F)c2COc2c(F)cc(CCC(=O)O)cc2F)c(F)c1` [Compound 72, 3-(3,5-Difluoro-4-{[1-(2-fluoro-4-methylphenyl)-3-(trifluoromethyl)-1H-pyrrol-2-yl]methoxy}phenyl)propanoic acid] was run?
The EC50 was 118 nM.

What about the EC50 [1] of the same compound?
The EC50 was 624 nM.

Which results are given for `Cc1ccc(-n2ccc(C(F)(F)F)c2COc2ccc(CCC(=O)O)c(C)c2C)c(F)c1` [Compound 73, 3-(4-{[1-(2-Fluoro-4-methylphenyl)-3-(trifluoromethyl)-1H-pyrrol-2-yl]methoxy}-2,3-dimethylphenyl)propanoic acid]?
EC50 (Human GPR120 short form): 210 nM; EC50 [1]: 749 nM

What does the source list for `Cc1c(CCC(=O)O)ccc(OCc2c(C(F)(F)F)ccn2-c2ccc(Cl)cc2F)c1C` [Compound 74, 3-(4-{[1-(4-Chloro-2-fluorophenyl)-3-(trifluoromethyl)-1H-pyrrol-2-yl]methoxy}-2,3-dimethylphenyl)propanoic acid]?
EC50 (Human GPR120 short form): 167 nM; EC50 [1]: 797 nM

What does the source list for `O=C(O)CCc1cc(F)c(OCc2c(C(F)(F)F)ccn2-c2ccc(F)cc2F)c(F)c1` [Compound 75, 3-(4-{[1-(2,4-Difluorophenyl)-3-(trifluoromethyl)-1H-pyrrol-2-yl]methoxy}-3,5-difluorophenyl)propanoic acid]?
EC50 (Human GPR120 short form): 156 nM; EC50 [1]: 577 nM

Which results are given for `O=C(O)CCc1cc(F)c(OCc2c(C(F)(F)F)ccn2-c2ccc(F)c(F)c2)c(F)c1` [Compound 76, 3-(4-{[1-(3,4-Difluorophenyl)-3-(trifluoromethyl)-1H-pyrrol-2-yl]methoxy}-3,5-difluorophenyl)propanoic acid]?
EC50 (Human GPR120 short form): 175 nM; EC50 [1]: 1120 nM

With `Cc1c(CCC(=O)O)ccc(OCc2c(C(F)(F)F)ccn2-c2ccc(F)cc2F)c1C` [Compound 77, 3-(4-{[1-(2,4-Difluorophenyl)-3-(trifluoromethyl)-1H-pyrrol-2-yl]methoxy}-2,3-dimethylphenyl)propanoic acid] as the compound, how does the EC50 (Human GPR120 short form) read?
The EC50 was 266 nM.

What about the EC50 [1] of the same compound?
The EC50 was 1060 nM.

For `Cc1c(CCC(=O)O)ccc(OCc2c(C(F)(F)F)ccn2-c2ccc(F)c(F)c2)c1C` [Compound 78, 3-(4-{[1-(3,4-Difluorophenyl)-3-(trifluoromethyl)-1H-pyrrol-2-yl]methoxy}-2,3-dimethylphenyl)propanoic acid], which EC50 (Human GPR120 short form) is on record?
The EC50 was 305 nM.

What about the EC50 [1] of the same compound?
Its EC50 is 1420 nM.
